{"source": "BindingDB's records for patent US20250325529", "about": "(Celloram, 2025)", "test_in_all_cases": "Binding assays for FABP3, FABP4, FABP5 and FABP7", "key": {"[1]": {"biological_target": "Fatty acid-binding protein, adipocyte (Homo sapiens, UniProt P15090)", "sequence (P15090 whole entry)": "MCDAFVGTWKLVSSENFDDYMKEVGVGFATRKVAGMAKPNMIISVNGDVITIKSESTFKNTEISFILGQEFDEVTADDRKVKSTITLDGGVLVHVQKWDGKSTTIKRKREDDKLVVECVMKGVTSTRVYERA", "description": "(§1) Binding assays for FABP3, FABP4, FABP5 and FABP7 were carried out by fluorescence titrations. His-tagged FABPs were bacterially expressed in E. coli, purified using Ni Sepharose beads, and the equilibrium dissociation constants (Kd) that characterize their interactions with different inhibitor compounds were measured by fluorescence competition assays. The method entails two steps as described in e.g., Lin, Q. et al., “Ligand selectivity of the peroxisome proliferator-activated receptor alpha,” Biochemistry 38, 185-190, doi:10.1021/bi9816094 [pii](1999). In the first step, Kd for the association of the protein with the fluorescent fatty acid probe ANS was measured. Protein (2 μM) was titrated with ANS from a concentrated solution in DMSO. Ligand binding was monitored by following the increase in the fluorescence of the ligand upon binding to the protein, and Kd for the association of ANS with the each FABP was computed from titration curves as described in e.g., Norris, A. W. & Li, E., “Fluorometric titration of the CRABPs,” Methods Mol Biol 89, 123-139 (1998)). In the second step, Kds for binding of non-fluorescent ligands were measured by monitoring their ability to displace ANS in the binding pocket of the protein."}, "[2]": {"biological_target": "Fatty acid-binding protein 5 (Homo sapiens, UniProt Q01469)", "sequence (Q01469 whole entry)": "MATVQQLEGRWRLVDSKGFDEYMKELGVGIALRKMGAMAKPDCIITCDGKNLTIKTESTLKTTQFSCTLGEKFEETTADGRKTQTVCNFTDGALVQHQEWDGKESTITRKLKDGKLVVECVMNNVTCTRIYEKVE", "description": "as §1"}, "[3]": {"biological_target": "Fatty acid-binding protein, brain (FABP7) (Homo sapiens, UniProt O15540)", "sequence (O15540 whole entry)": "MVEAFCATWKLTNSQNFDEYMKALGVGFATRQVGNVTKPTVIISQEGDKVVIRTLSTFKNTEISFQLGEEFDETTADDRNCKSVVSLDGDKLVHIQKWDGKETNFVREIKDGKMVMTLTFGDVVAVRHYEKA", "description": "as §1"}, "[4]": {"biological_target": "Fatty acid-binding protein, heart (Homo sapiens, UniProt P05413)", "sequence (P05413 whole entry)": "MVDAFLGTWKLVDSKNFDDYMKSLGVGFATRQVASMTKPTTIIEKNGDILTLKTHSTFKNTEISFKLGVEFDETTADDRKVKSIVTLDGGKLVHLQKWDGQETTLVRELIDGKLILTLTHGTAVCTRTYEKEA", "description": "as §1"}}}
{"smiles": "CC(C)Oc1nc(NC(=O)CC(C)(C)CC(=O)O)c(Cl)cc1Cl", "note": "[US20250325529, ID PD154]", "values": [{"measurement": "Kd", "setting": "[1]", "value": 14, "unit": "nM"}, {"measurement": "Kd", "setting": "[2]", "value": 11, "unit": "nM"}, {"measurement": "Kd", "setting": "[3]", "value": 43, "unit": "nM"}, {"measurement": "Kd", "setting": "[4]", "value": 60.8, "unit": "nM"}]}
